# Measured values: ChEMBL document CHEMBL1146940, “Structure-activity relationship study between Ornithyl-Proline and Lysyl-Proline based tripeptidomimics as angiotensin-converting enzyme inhibitors” (Bioorg Med Chem Lett, 2006)
# Square brackets hold non-standard residues; d marks the D form. Peptide text beside a SMILES is read from it. Trp(5-OH) = N[C@@H](Cc1c[nH]c2ccc(O)cc12)C(=O)O; NMeW = CN[C@@H](Cc1c[nH]c2ccccc12)C(=O)O; Dip = N[C@H](C(=O)O)C(c1ccccc1)c1ccccc1; β3hW = N[C@H](CC(=O)O)Cc1c[nH]c2ccccc12; Tic = O=C(O)[C@@H]1Cc2ccccc2CN1; 3Thi = N[C@@H](Cc1ccsc1)C(=O)O; Cha = N[C@@H](CC1CCCCC1)C(=O)O; Orn = NCCC[C@H](N)C(=O)O
# Key:
# [1] = target: Angiotensin-converting enzyme (Bos taurus) (UniProt P12820); assay: Inhibition of ACE in bovine kidney; set-up: concentration or dose not given beside the values; conditions: concentration not given here
# [2] = target: Angiotensin-converting enzyme (Bos taurus) (UniProt P12820); assay: Activity against ACE in bovine kidney
# Chain of Angiotensin-converting enzyme (Bos taurus) (P12820 whole entry, looked up): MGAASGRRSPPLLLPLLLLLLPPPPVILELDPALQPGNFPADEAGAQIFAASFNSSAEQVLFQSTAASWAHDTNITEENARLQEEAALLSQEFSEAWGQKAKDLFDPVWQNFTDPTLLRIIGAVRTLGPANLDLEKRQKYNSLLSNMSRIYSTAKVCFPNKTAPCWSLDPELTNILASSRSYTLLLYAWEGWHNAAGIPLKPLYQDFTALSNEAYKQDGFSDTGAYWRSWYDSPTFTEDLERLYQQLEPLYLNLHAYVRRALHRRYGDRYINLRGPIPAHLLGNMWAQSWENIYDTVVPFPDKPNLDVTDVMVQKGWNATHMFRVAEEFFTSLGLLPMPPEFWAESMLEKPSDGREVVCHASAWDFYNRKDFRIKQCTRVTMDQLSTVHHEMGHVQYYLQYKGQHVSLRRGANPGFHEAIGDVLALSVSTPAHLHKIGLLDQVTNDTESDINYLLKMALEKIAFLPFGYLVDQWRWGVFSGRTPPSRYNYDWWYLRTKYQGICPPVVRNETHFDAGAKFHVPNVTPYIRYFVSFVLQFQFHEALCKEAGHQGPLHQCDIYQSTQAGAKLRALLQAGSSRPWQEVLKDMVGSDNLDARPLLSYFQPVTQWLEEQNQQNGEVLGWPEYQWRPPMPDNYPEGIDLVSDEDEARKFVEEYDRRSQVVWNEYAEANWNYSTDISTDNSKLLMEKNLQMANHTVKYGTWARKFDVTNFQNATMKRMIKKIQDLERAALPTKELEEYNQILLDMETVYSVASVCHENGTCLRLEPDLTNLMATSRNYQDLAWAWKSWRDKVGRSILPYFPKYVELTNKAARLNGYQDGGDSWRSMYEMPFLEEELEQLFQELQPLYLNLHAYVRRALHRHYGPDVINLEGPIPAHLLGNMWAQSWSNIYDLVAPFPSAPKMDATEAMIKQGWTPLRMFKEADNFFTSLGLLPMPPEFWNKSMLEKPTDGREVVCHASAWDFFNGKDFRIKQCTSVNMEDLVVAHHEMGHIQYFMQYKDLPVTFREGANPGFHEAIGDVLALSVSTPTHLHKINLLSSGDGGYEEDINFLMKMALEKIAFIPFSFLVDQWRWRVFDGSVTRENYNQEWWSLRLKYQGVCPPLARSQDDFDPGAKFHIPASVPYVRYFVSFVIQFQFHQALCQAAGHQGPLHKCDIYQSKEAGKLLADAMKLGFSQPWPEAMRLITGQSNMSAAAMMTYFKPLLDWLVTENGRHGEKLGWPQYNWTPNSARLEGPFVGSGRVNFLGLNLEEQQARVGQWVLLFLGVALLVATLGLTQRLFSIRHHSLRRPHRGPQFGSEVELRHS
Compound,inhibition [1] [%],Activity [2] [mU/ml]
NCCCC[C@H](NC(=O)CCc1ccc(O)cc1)C(=O)N1CCC[C@H]1C(=O)O,29.3,9.52
NCCC[C@H](NC(=O)CCc1nc2ccccc2[nH]1)C(=O)N1CCC[C@H]1C(=O)O,65.5,4.7
NCCCC[C@H](NC(=O)[C@@H](N)C(c1ccccc1)c1ccccc1)C(=O)N1CCC[C@H]1C(=O)O (H-[Dip]-Lys-Pro-OH),33.8,8.91
NCCC[C@H](NC(=O)[C@@H](N)C(c1ccccc1)c1ccccc1)C(=O)N1CCC[C@H]1C(=O)O (H-[Dip]-[Orn]-Pro-OH),27.7,9.74
CN[C@@H](Cc1c[nH]c2ccccc12)C(=O)N[C@@H](CCCCN)C(=O)N1CCC[C@H]1C(=O)O (H-[NMeW]-Lys-Pro-OH),39.1,8.2
NCCCC[C@H](NC(=O)[C@@H]1Cc2ccccc2CN1)C(=O)N1CCC[C@H]1C(=O)O (H-[Tic]-Lys-Pro-OH),19.4,10.8
NCCC[C@H](NC(=O)[C@@H]1Cc2ccccc2CN1)C(=O)N1CCC[C@H]1C(=O)O (H-[Tic]-[Orn]-Pro-OH),25,10.1
NCCCC[C@H](NC(=O)C[C@@H](N)Cc1c[nH]c2ccccc12)C(=O)N1CCC[C@H]1C(=O)O (H-[β3hW]-Lys-Pro-OH),30.2,9.4
NCCC[C@H](NC(=O)C[C@@H](N)Cc1c[nH]c2ccccc12)C(=O)N1CCC[C@H]1C(=O)O (H-[β3hW]-[Orn]-Pro-OH),9.13,12.2

# The remaining lines, values ahead:
inhibition [1] [%],Activity [2] [mU/ml],Compound
22.6,10.4,NCCCC[C@H](NC(=O)C[C@@H](N)Cc1ccccc1)C(=O)N1CCC[C@H]1C(=O)O
10.1,12.1,NCCCC[C@H](NC(=O)[C@@H](N)Cc1ccco1)C(=O)N1CCC[C@H]1C(=O)O
23.8,10.3,NCCC[C@H](NC(=O)CCc1ccc(O)cc1)C(=O)N1CCC[C@H]1C(=O)O
31.7,9.21,NCCC[C@H](NC(=O)C[C@@H](N)Cc1ccccc1)C(=O)N1CCC[C@H]1C(=O)O
35.6,8.67,NCCC[C@H](NC(=O)[C@@H](N)Cc1ccco1)C(=O)N1CCC[C@H]1C(=O)O
13.3,11.7,NCCCC[C@H](NC(=O)[C@@H](N)Cc1ccsc1)C(=O)N1CCC[C@H]1C(=O)O (H-[3Thi]-Lys-Pro-OH)
74.7,3.41,NCCC[C@H](NC(=O)[C@@H](N)Cc1ccsc1)C(=O)N1CCC[C@H]1C(=O)O (H-[3Thi]-[Orn]-Pro-OH)
3.71,13.1,NCCCC[C@H](NC(=O)[C@@H](N)CC1CCCCC1)C(=O)N1CCC[C@H]1C(=O)O (H-[Cha]-Lys-Pro-OH)
30.8,9.32,NCCC[C@H](NC(=O)[C@@H](N)CC1CCCCC1)C(=O)N1CCC[C@H]1C(=O)O (H-[Cha]-[Orn]-Pro-OH)
63.6,4.88,CN[C@@H](Cc1c[nH]c2ccccc12)C(=O)N[C@@H](CCCN)C(=O)N1CCC[C@H]1C(=O)O (H-[NMeW]-[Orn]-Pro-OH)
68.8,4.2,NCCC[C@H](NC(=O)[C@@H](N)Cc1c[nH]c2ccc(O)cc12)C(=O)N1CCC[C@H]1C(=O)O (H-[Trp(5-OH)]-[Orn]-Pro-OH)
